Laboratory results from patent US20030129684A1, “Method for detecting fungicides” (priority 2000, published 2003).

Assays:
Rhodotorula rubra [1] = experiment: Bioautographic detection of various fungicides on TLC plate, staining with optical brightener, evaluation at 366 nm; assay type: cell-based; set-up: key to Zone of inhibition 2 ppb / Zone of inhibition 500 ppt / Zone of inhibition 100 ppt: −: no zone of inhibition; +: small zone of inhibition; ++: clearly visible zone of inhibition; conditions: for Zone of inhibition 2 ppb / Zone of inhibition 100 ppt / Zone of inhibition 500 ppt: optical brightener, 366 nm, 20 hours incubation
Protocol: The evaluation is carried out by staining with optical brightener (0.04% of Blankophor® BA 267% from Bayer AG, Germany, in 0.1 mol/l NaOH solution). To this end, the TLC plate is dried, wetted with the stain solution and subsequently stored for 5 minutes at room temperature. The evaluation is carried out at 366 nm. The zones of inhibition are evident as dark spots against a fluorescent background.

Rhodotorula rubra [2] = conditions: fluorescence extinction at 254 nm; result in words
Protocol: 200 ml of deionised water, 10 g of Sabouraud 2% glucose broth and 0.11 g of Gelrite® are boiled until sterile. The test organism is then added in the form of a lyophilisate or living culture and pre-incubated for 3 hours at 35° C.
The developed TLC plate is dipped briefly into the fungal suspension, and excess suspension is removed from the base of the plate. The TLC plate is subsequently incubated for 20 hours at room temperature in a can lined with moist paper.
The evaluation is carried out by fluorescence extinction at 254 nm.

Structure (SMILES)	Zone of inhibition 2 ppb (Rhodotorula rubra [1])	Zone of inhibition 100 ppt (Rhodotorula rubra [1])	Zone of inhibition 500 ppt (Rhodotorula rubra [1])	Detection limit (Rhodotorula rubra [1]; also printed as 2 μg/kg)	Detection limit (Rhodotorula rubra [1]; also printed as 500 ng/kg)	zone of inhibition with Rf about 1.0 (Rhodotorula rubra [2])	zone of inhibition on the starting line (Rf=0) (Rhodotorula rubra [2])
CC(Cc1ccc(C(C)(C)C)cc1)CN1C[C@@H](C)O[C@@H](C)C1 (some centres unmarked) [A1, fenpropimorph]	++	−	−	2 ppb (2 μg/kg)			
C[Si](Cn1cncn1)(c1ccc(F)cc1)c1ccc(F)cc1 [A2, flusilazole]	++	−	+		500 ppt (500 ng/kg)		
CCCC1COC(Cn2cncn2)(c2ccc(Cl)cc2Cl)O1 (centres unmarked) [A3, propiconazole]	++	−	+		500 ppt (500 ng/kg)		
CCC[CH2][Sn]([Cl])([CH2]CCC)[CH2]CCC [F1, Tributyltin Chloride]						evident	
CCC[CH2][Sn]([Cl])([CH2]CCC)[CH2]CCC [F2, Tributyltin Chloride]							evident
